For assay [1], the target named is T1, pteridine reductase (TbPTR1) (Trypanosoma brucei, UniProt O76290). The experiment in a line: crystal structure at […] Å. The class given is biochemical.
For assay [2], the target named is T1, pteridine reductase (TbPTR1). The experiment in a line: crystal structures. Type of assay: binding.
For assay [3] the target is unchanged. The experiment in a line: crystal structure at […] Å. The class given is biochemical. The source holds these as a separate data set.
For assay [4] the target is unchanged. Description: crystal structure at […] Å. The class given is biochemical. The source holds these as a separate data set.
For assay [5] the target is unchanged. Description: crystal structure at […] Å. The class given is biochemical. This is another data set of the same source.

A word on the Ki: it is the equilibrium dissociation constant of an inhibitor or competing ligand from its target. Low values mean a stronger hold on the target, high ones a looser hold on the target.

Molecules are shown by their SMILES. Read-outs that look alike come from different tables or passages of the source.

Turning to `Nc1nc(N)nc(NC2CC2)n1` [Cyromazine, N-cyclopropyl-1,3,5-triazine-2,4,6-triamine], the Ki in assay [1] was > 35000 nM.

Consider `NC(=O)c1ccc[n+]([C@@H]2O[C@H](COP(=O)(O)OP(=O)(O)OC[C@H]3O[C@@H](n4cnc5c(N)ncnc54)[C@H](OP(=O)(O)O)[C@@H]3O)[C@@H](O)[C@H]2O)c1` [NADP+], for which the “crystal structures (complexes with pemetrexed, trimetrexate, PY848)” value in assay [2] is “Crystals of TbPTR1 in a binary complex with oxidized cofactor (NADP^+) were grown”.

As for `COc1ccc(OC)c(CCc2csc3nc(N)nc(N)c23)c1` [PY848, 2,4-diamino-5-[2-(2,5-dimethoxyphenyl)ethyl]thieno[2,3-d]-pyrimidine], the Ki in assay [3] is ~70 nM.

Take `Nc1nc2[nH]cc(CCc3ccc(C(=O)N[C@@H](CCC(=O)O)C(=O)O)cc3)c2c(=O)[nH]1` [Pemetrexed, 2-{4-[2-(4-amino-2-oxo-3,5,7-triazabicyclo[4.3.0]nona-3,8,10-trien-9-yl)ethyl]benzoyl}aminopentanedioic acid]: in assay [4], the Ki was ~30 nM.

In the case of `COc1cc(NCc2ccc3nc(N)nc(N)c3c2C)cc(OC)c1OC` [Trimetrexate, 5-methyl-6-[(3,4,5-trimethoxyphenyl)aminomethyl]quinazoline-2,4-diamine], the Ki in assay [5] is ~70 nM.

Values taken from PMC3655514 (Acta crystallographica. Section D, Biological …, 2010).
